Laboratory results taken from patent publication US20250339812A1, “ELECTROCHEMICAL DIRECT AIR CAPTURE OF CARBON DIOXIDE USING REVERSIBLE REDOX-ACTIVE MATERIAL” (Massachusetts Institute of Technology, priority 2022, published 2025).
Read-outs that look alike come from different tables or passages of the source.

Legend:
[1] = pKa of the NR/NRH equilibrium; type: physicochemical
From the text: After basification, a carbon dioxide rich gas stream was introduced to saturate and consequently acidify the solution.

[2] = Cyclic voltammetry redox durability of NR (100 cycles); conditions: after 100 cyclic voltammetry cycles
From the text: The electrochemistry of the NR aqueous solution was examined by CV at various pH levels between 6 and 12 (FIG. 2A).

[3] = for peak intensity degradation: nitrogen control
From the text: FIG. 5C is a UV-vis spectra for the oxygen sensitivity test.
FIG. 5D is a UV-vis spectra for the control experiment under nitrogen.
FIG. 5E is a UV-vis spectra for the stability test under carbon dioxide.
FIG. 5F is a UV-vis spectra for the stability test under air.
The factors contributing to the 455 nm peak degradation were examined, including decomposition, reoxidation, precipitation, and polymerization.
A third set of UV-vis absorption measurements […], this time on solutions contacted with carbon dioxide, was carried out. […] The final set of UV-vis absorption experiments in FIG. 5F was carried out using solutions bubbled with ambient air.

pKa [1] | decay in the peak current [2] | sensitivity to oxygen ([3]; UV-vis absorption spectroscopy, 50 mM NRH2 in 1 M NA and 0.5 M KCl in water) | intensities of the 455 nm peak ([3]; bubbled with ambient air, 30 min and 2 h contact) | degradation of peak intensity at 455 nm ([3]; contacted with carbon dioxide, after a day) | peak intensity at 455 nm ([3]; contacting pure oxygen, 2 h) | peak intensity degradation ([3]; after 24 h) [%] | peak intensity degradation ([3]; after a week) [%] | peak intensity of NRH2 (455 nm) lowered by ([3]; oxygen atmosphere, a day) [%] | peak intensity of NRH2 (455 nm) lowered by ([3]; sealed under oxygen atmosphere after 24 h bubbling, a week) [%] | Structure (SMILES) | decomposition, reoxidation or polymerization products by NMR studies ([3]; NRH2 solutions)
6.8 | no significant decay |  |  |  |  |  |  |  |  | Cc1cc2nc3ccc(N(C)C)cc3nc2cc1N.Cl [NR, neutral red] | 
 |  | insensitive to oxygen | the same | no significant degradation | maintained | 33 | 53 | 42 | 52 | Cc1cc2c(cc1N)Nc1cc(N(C)C)ccc1N2 [NRH2, leuco-neutral red] | No major decomposition, reoxidation, or polymerization products
